Test: Plasma and liver pharmacokinetics of LNP formulated mRNAs
Format: in vivo
Description: The plasma and liver pharmacokinetics of a lipid formulation (LNP) containing Compound 18 and an mRNA encoding a protein of interest was studied. The concentrations of Compound 18 in plasma after a single IV infusion are shown FIG. 28. The concentration of Compound 18 decreased quickly within about 12 hours.
The concentrations of Compound 18 in liver tissues after weekly dosing were measured at day 1, day 8, and day 15.

time within which the concentration of Compound 18 in plasma decreased quickly (single IV infusion of LNP containing Compound 18 and mRNA): ≤ 12 h
concentration of Compound 18 in liver tissues (weekly dosing, measured at day 1, day 8, day 15, at four hours after each weekly dosing): decreased significantly
Structure (SMILES): CCCCCCCCCOC(=O)CCCCCCCN(CCO)CCCCCCCC(=O)OC(CCCCCCCC)CCCCCCCC [Compound 18, Heptadecan-9-yl 8-((2-hydroxyethyl)(8-(nonyloxy)-8-oxooctyl)amino) octanoate]

Reference: patent US20190167811A1, “LIPID COMPOSITIONS AND THEIR USES FOR INTRATUMORAL POLYNUCLEOTIDE DELIVERY” (ModernaTX, Inc., priority 2016, published 2019)
